Consider 6 compounds from paper PMC5603512, “Discovery, Semisynthesis, Antiparasitic and Cytotoxic Evaluation of 14-Membered Resorcylic Acid Lactones and Their Derivatives” (Scientific Reports, 2017).

By IC50 is commonly meant the midpoint of a concentration-inhibition curve. By CC50 is commonly meant the concentration giving 50% cytotoxicity.

One data set relates to Leishmania donovani. Description: Antileishmanial assay (PicoGreen). Type of data set: cell-based. The note with it: read-out: Leishmania donovani IC50. Here is the method: The anti-leishmania activity was evaluated following the protocol described by Calderon et al.[39], using the fluorescent DNA intercalator PicoGreen (Invitrogen, USA). The species responsible for visceral leishmaniasis, L. donovani, was used for the assays.

Another data set concerns Plasmodium falciparum. Put plainly: Antiplasmodial assay (PicoGreen growth inhibition in infected human erythrocytes). It is filed as cell-based. Conditions: read-out: Plasmodium falciparum IC50. Here is the method:
Activity against the causative agent of malaria was performed by culturing human erythrocytes and infecting them with P. falciparum, as described by Trager and Jensen[36]. Briefly, the W2 (Chloroquine resistant) and 3D7 (Chloroquine sensitive) strains of P. falciparum were cultured in RPMI 1640 medium (Sigma-Aldrich, USA) supplemented with 10% human serum (from O+ blood) at a hematocrit of 2% erythrocytes (O+) at 37 °C in a gas mixture of 5% CO2, 5% O2, and 90% N2. Parasites were synchronized by a temperature cycling technique as described by Almanza et al.[37]

Data set [1] can be described thus: Cytotoxicity SRB assay, A-549. Conditions: human. On the procedure: (§1) All of the compounds were also evaluated for their cytotoxic properties against six human cancer cell lines (lung carcinoma epithelian (A549), colon carcinoma (HCT-116), pancreatic carcinoma (BXPC-3), breast cancer (MCF-7), cervical epithelium (HeLa), and erythroleukemic (K562)) and a human umbilical vein endothelial cell (HUVEC) line (Table 2).
(§2) The cytotoxicity against HCT-116, BXPC-3, HeLa, MCF-7, A-549, and HUVEC cell lines was evaluated using the SRB method. The cytotoxicity against K562 and Vero cell lines was evaluated using the MTT method. Adriamycin was used as a positive control. All cells were cultivated in T-75 flasks containing 10% Fetal Bovine Serum (FBS), Dulbeco’s Modified Eagle Medium (DMEM) with 2 mM L-glutamine, and 1% penicillin-streptomycin at 37 °C in a humidified atmosphere with 5% CO2. For SRB assay, cells in their log phase of growth were seeded into 96 well micro plates (4 × 10^4 cells per well) and followed by treating with test samples at 10 μM or DMSO. After incubation at 37 °C for 72 h, the cells were fixed with the cold 20% (w/v) TCA for 2 h and stained with Sulforhodamine B (SRB) dye for 0.5 h. The protein-bound dye is dissolved in Tris base solution for OD determination at 540 nm on an ELISA Plate Reader. For MTT assay, cells (5 × 10^3 cells per well) were plated in 96 well micro plates. After cell attachment overnight, new medium containing test compounds or DMSO was added. The plate was incubated for 48 h at 37 °C and incubated with 3-(4,5-dimethylthiazol-2-yl)-2,5-diphenyltetrazolium bromide (MTT) for additional 2–4 hours. The assay plate was then read at 490 nm on an ELISA Plate Reader. The data were obtained from experiments carried out in triplicate.
(In general: The SRB assay estimates cell density from bound dye.)

Data set [2] is described as follows: Cytotoxicity SRB assay, HUVEC. The note with it: human. Here is the method: as §1, §2
Data set [3] in a line: Cytotoxicity SRB assay, HCT-116. Conditions: human. On the procedure: as §1, §2
The nature of data set [4]: Cytotoxicity SRB assay, HeLa. The note with it: human. On the procedure: as §1, §2
Data set [5] is described as follows: Toxicity against Vero cells (MTT). Type of data set: cell-based, African green monkey. The note with it: African green monkey, MTT, 48 h. On the procedure: It should be emphasized that toxicity is a major concern of drug discovery and development. The above active compounds were evaluated for in vitro toxicity against a mammalian kidney cell line (Vero). The selectivity index (SI) was used as the evaluation parameter of drug potential of the test samples by comparing the toxicity on the Vero cell line (CC50) and the selective inhibitory effect on P. falciparum, L. donovani or T. cruzi (IC50) calculated here as CC50/IC50.
Adriamycin was used as a positive control.

A short description of data set [6]: Cytotoxicity MTT assay, K562. The note with it: human. On the procedure: as §1, §2
On the technique in general: Tetrazolium assays rely on reduction of a dye to a coloured formazan, in cell work by metabolically active cells.

A short description of data set [7]: Cytotoxicity SRB assay, MCF-7. Conditions: human. Here is the method:
as §1, §2

A short description of data set [8]: Cytotoxicity against the panel of six human cancer cell lines and HUVEC. Here is the method: as §1, §2
The nature of data set [9]: Cytotoxicity SRB assay, BXPC-3. Conditions: human. Here is the method: as §1, §2
In another data set the test system is Trypanosoma cruzi. Put plainly: Antitrypanosomal assay (beta-galactosidase reporter, intracellular amastigotes in Vero cells). Also: key: I: Inactive. Type of data set: cell-based. The note with it: Tulahuen clone C4, intracellular amastigotes in Vero cells, 120 h. On the procedure: Briefly, the expression of the reporter gene for beta-galactosidase (β-Gal) in the Tulahuen clone C4 of T. cruzi is assessed by colorimetry at 570 nm, which correlates with the parasite growth. Assays were performed on the intracellular amastigote form of the parasite infecting African green monkey kidney (Vero) cells, incubated for 120 h at 37 °C with 5% CO2.

Where [10] appears, read: Erythrocyte, in vitro, W2 and 3D7 strains cultured, strain of the values not stated.
[11] abbreviates: HUVEC (umbilical vein endothelial cells).
Where [12] appears, read: Vero cells (mammalian kidney cell line).
Setting [13] is: BXPC-3 pancreatic carcinoma cells.

Like-named read-outs stand apart in the source and are kept apart here. A value given as a limit tells only on which side of the number the result lay.

With `COc1cc2c(c(OC(C)=O)c1)C(=O)O[C@@H](C)C/C=C/C(=O)[C@@H](OC(C)=O)[C@H](OC(C)=O)C/C=C/2` [Compound 24], the IC50 in the data set with Leishmania donovani (in vitro) is 12.1 µM; in the data set on Plasmodium falciparum (setting [10]), greater than 30.7 µM. Further, the IC50 at 72 h in data set [1] (A-549 lung carcinoma cells), in [2] (setting [11]), in data set [3] (HCT-116 colon carcinoma cells) and in data set [4] (HeLa cervical epithelium cells) was greater than 10 µM throughout. In data set [5] (setting [12]), this compound registered a CC50 at 48 h of 3.2 µM.

As to `COc1cc(O)c2c(c1)/C=C/C[C@@H]1OC(C)(C)O[C@@H]1C(=O)/C=C/C[C@H](C)OC2=O` [Compound 20], the values for the IC50 (in the data set on Leishmania donovani (in vitro); in the data set with Plasmodium falciparum (setting [10]); in data set [8]) were 6.46 µM, greater than 30.7 µM and less than 10 µM, respectively. The IC50 at 48 h in [6] is greater than 10 µM. Further, the IC50 at 72 h in data set [1] is greater than 10 µM; in data set [7], greater than 10 µM; in [2], 9.78 µM; in [3], greater than 10 µM; in data set [4] it was 7.21 µM; in [9], greater than 10 µM. The same compound came in with a CC50 at 48 h in data set [5] of less than 1 µM.

Turning to `COc1cc(O)c2c(c1)/C=C/C[C@H](O)[C@H](O)C(=O)/C=C\C[C@H](C)OC2=O` [Compound 7], the values for the IC50 (in the data set on Leishmania donovani (in vitro); in the data set on Plasmodium falciparum (setting [10]); in data set [8]) were 2.21 µM, 11 µM and less than 10 µM, respectively. The compound also showed an IC50 at 48 h in data set [6] (K562 erythroleukemic cells) greater than 10 µM. For the same compound, the IC50 at 72 h in data set [1] (A-549 lung carcinoma cells) is greater than 10 µM; in data set [7] (MCF-7 breast cancer cells), greater than 10 µM; in data set [2] (setting [11]), greater than 10 µM; in data set [3] (HCT-116 colon carcinoma cells) it was 1.09 µM; in data set [4] (HeLa cervical epithelium cells), greater than 10 µM; in data set [9] (setting [13]) it was 5.07 µM. The CC50 at 48 h in data set [5] (setting [12]) is less than 1 µM.

Turning to `COc1cc(O)c2c(c1)/C=C/C[C@H](O)[C@H](O)[C@@H](O)/C=C/C[C@H](C)OC2=O` [Compound 8, zeaenol], the IC50 in the data set with Leishmania donovani was greater than 15.7 µM; in the data set with Plasmodium falciparum (3D7, Erythrocyte) it was greater than 30.7 µM. In addition, in the data set on Trypanosoma cruzi, the “Trypanosoma cruzi IC50” value is listed as “I”. Also, the IC50 at 48 h in data set [6] is greater than 10 µM. Also, the IC50 at 72 h in data set [1], in [7], in data set [2], in [3], in data set [4] and in [9] was greater than 10 µM in each case. Moreover, half-maximal cytotoxicity in [5] (CC50 at 48 h) was put at 227 µM.

With `COc1cc2c(c(OC(C)=O)c1)C(=O)O[C@@H](C)C/C=C/C(=O)[C@@H](OC(C)=O)[C@@H](OC(C)=O)C/C=C/2` [Compound 21], the 50% inhibitory concentration (IC50) with Leishmania donovani (in vitro) is 3.69 µM; with Plasmodium falciparum (setting [10]), greater than 30.7 µM; in data set [8], less than 10 µM. Also, the half-inhibitory concentration (IC50) at 48 h in data set [6] (K562 erythroleukemic cells) was greater than 10 µM. Also, the IC50 at 72 h in [1] (A-549 lung carcinoma cells) was greater than 10 µM; in [7] (MCF-7 breast cancer cells), greater than 10 µM; in [2] (setting [11]), 4.52 µM; in data set [3] (HCT-116 colon carcinoma cells), greater than 10 µM; in data set [4] (HeLa cervical epithelium cells), 6.95 µM; in data set [9] (setting [13]), greater than 10 µM. The midpoint of cytotoxicity in data set [5] (setting [12]), the CC50 at 48 h, lay at 5.8 µM.

In the case of `COc1cc(O)c2c(c1)C=CCC1OC(C)(C)OC1C(=O)C=CCC(C)OC2=O` (centres unmarked) [Compound 26], the figures for the IC50 (in the data set on Leishmania donovani (in vitro); in the data set on Plasmodium falciparum (setting [10]); in data set [8]) were 1.24 µM, 8.95 µM and less than 10 µM, respectively. The half-maximal inhibitory concentration (IC50) at 48 h in data set [6] is greater than 10 µM. The IC50 at 72 h in [1] is greater than 10 µM; in [7] it was greater than 10 µM; in data set [2] it was 4.81 µM; in data set [3] it was 9.16 µM; in data set [4], 4.02 µM; in data set [9] it was 7.22 µM. Also, in data set [5], the CC50 at 48 h is less than 1 µM.
